Data on ten molecules can be found in patent US12365687B2 (Hoffmann-La Roche Inc., priority 2021, dated 2025).

The target of experiment [1] is human GABAA α2β2γ1 receptor (Homo sapiens (Human), UniProt P47869+Q8N1C3). Kind of experiment: Radioligand binding assay for γ1-containing GABAA subtypes, [3H]RO7239181 competition (α2β2γ1).
In experiment [2] the target is human GABAA α1β3γ2 receptor (Homo sapiens (Human), UniProt P14867+P18507). In words: Radioligand binding assay for γ2-containing GABAA subtypes, [3H]Flumazenil competition (α1β3γ2). The following applies: for γ2/γ1 Selectivity Ratio: Ki α1β3γ2 (nM)/Ki α2β2γ1 (nM); for LogSel: Log[Ki α1β3γ2 (nM)/Ki α2β2γ1 (nM)].
Experiment [3] addresses α2β2γ1 GABAA receptor subtype (Homo sapiens (Human), UniProt P47869+Q8N1C3). Kind of experiment: Two-electrode voltage clamp electrophysiology in Xenopus oocytes expressing GABAA receptors (modulation of GABA EC20 current). In kind it is cell-based. The following applies: for Efficacy (GABA)%: % modulation of GABA EC20 = 100*(Fold increase-1), α2β2γ1 oocytes, compound at approx. 30-fold Ki; for Fold increase h-GABA-A α2β2γ1 oocyte @ 30-fold Ki: Xenopus oocytes expressing α2β2γ1, compound at approx. 30-fold its Ki α2β2γ1, GABA EC20 current. The method, boiled down:
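Each concentration was tested on ≥3 oocytes held at −80 mV at room temperature, recorded 3-5 days post-injection. A control and a test response to EC20 GABA (1.5 min each) were superimposed and their point-by-point ratio taken. Peak ratio reported as % modulation of GABA EC20 = 100×(fold increase−1).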
On the technique in general: Two-electrode voltage clamp holds a large cell at a set potential and records current.

The target of experiment [4] is human GABAA α1β2γ1 receptor (Homo sapiens (Human), UniProt P14867+Q8N1C3). In words: Radioligand binding assay for γ1-containing GABAA subtypes, [3H]RO7239181 competition (α1β2γ1). The protocol:
The affinity of compounds at GABAA γ1 subunit-containing receptors was measured by competition for [^3H]RO7239181 (67.3 Ci/mmol; Roche) binding to membranes from HEK293F cells (ThermoFisher R79007) expressing human (transiently transfected) receptors of composition α5β2γ1, α2β2γ1, α1β2γ1.
Harvested pellets from HEK293F cells expressing the different GABAA receptor subtypes were resuspended in Mannitol Buffer pH 7.2-7.4 (Mannitol 0.29 M, Triethylamine 10 mM, Acetic acid 10 mM, EDTA 1 mM plus protease inhibitors (20 tablets Complete, Roche Diagnostics Cat. No. 05 056 489 001 per liter)), washed two times and then resuspended at 1:10 to 1:15 dilution in the same buffer. Cell disruption was performed by stirring the suspension in a Parr vessel #4637 at 435 psi for 15 minutes, and then the suspensions were centrifuged at 1000×g for 15 minutes at 4° C. (Beckman Avanti J-HC; rotor JS-4.2). The supernatant (S1) was transferred in a 2 l Schott flask and the pellet (P1) was resuspended with Mannitol Buffer up to 175 ml. The resuspended pellet was transferred into a 250 ml Corning centrifugal beaker and centrifuged at 1500×g for 10 minutes at 4° C. (Beckman Avanti J-HC; rotor JS-4.2). The supernatant (S1) was then transferred in the 2 l Schott flask and the pellet was discarded. The supernatants (S1) were centrifuged in 500 ml Beckman polypropylene centrifugal beaker at 15′000×g for 30 minutes at 4° C. (Beckman Avanti J-20 XP; rotor JLA-10.500). The pellet (P2) was resuspended with Mannitol Buffer 1:1 and frozen at −80° C. The supernatant (S2) was centrifuged in 100 ml Beckman polypropylene centrifugal tubes at 48000×g for 50 minutes at 4° C. (Beckman Avanti J-20 XP; rotor JA-18). The supernatant (S3) was discarded and the pellet (P3) was resuspended with 1:1 Mannitol Buffer. The P2 and P3 protein concentration was determined with the BIORAD Standard assay method with bovine serum albumin as standard and measured on the NANO-Drop 1000. The membrane suspension was aliquots (500 μl per tube) and stored at −80° C. until required.
Membrane homogenates were resuspended and polytronised (Polytron PT1200E Kinematica AG) in Potassium Phosphate 10 mM, KCl 100 mM binding buffer at pH 7.4 to a final assay concentration determined with a previous experiment.
Assays were incubated to equilibrium for 1 hour at 4° C. and then, membranes were filtered onto unifilter (96-well white microplate with bonded GF/C filters preincubated 20-50 minutes in 0.3% Polyethylenimine) with a Filtermate 196 harvester (Packard BioScience) and washed 4 times with cold Potassium Phosphate 10 mM pH 7.4, KCl 100 mM binding buffer. After anhydrousing, filter-retained radioactivity was detected by liquid scintillation counting. Ki values were calculated using Excel-Fit (Microsoft) and are the means of two determinations.

The target of experiment [5] is human GABAA α5β2γ1 receptor (Homo sapiens (Human), UniProt P31644+Q8N1C3). In words: Radioligand binding assay for γ1-containing GABAA subtypes, [3H]RO7239181 competition (α5β2γ1).
The mark [6] stands for this setting: Ki h-GABAA α2β2γ1, [3H]RO7239181 competition binding, human GABAA α2β2γ1.
The mark [7] stands for this setting: Ki h-GABAA α2β2γ1, displacement of [3H]RO7239181, membranes of HEK293F cells expressing human receptors, means of two determinations.

A word on the Ki: it is the equilibrium dissociation constant of an inhibitor or competing ligand from its target. A lower Ki goes with higher affinity. For `C[C@H](O)CNC(=O)c1nc2n(n1)-c1ccc(C(F)(F)F)c(Cl)c1C(c1c(F)cccc1F)=N[C@H]2C` [Example 109, (4S)-7-chloro-6-(2,6-difluorophenyl)-N-[(2S)-2-hydroxypropyl]-4-methyl-8-(trifluoromethyl)-4H-[1,2,4]triazolo[1,5-a][1,4]benzodiazepine-2-carboxamide], the Ki in experiment [1] (setting [6]) worked out at 12.1 nM; in experiment [1] (setting [7]), 12.1 nM; in experiment [2], 3120 nM; in experiment [4], 40.8 nM; in experiment [5], 3.07 nM. Further, the “γ2/γ1 Selectivity Ratio” value in experiment [2] is 258.7. The LogSel in experiment [2] came to 2.41. Further, in experiment [3], the “Efficacy (GABA)%” value was found to be 126%. Moreover, in experiment [3], the “Fold increase h-GABA-A α2β2γ1 oocyte @ 30-fold Ki” value is 2.26.
Take `C[C@@H]1N=C(c2c(F)cccc2F)c2c(ccc(Cl)c2Cl)-n2nc(C(=O)N3CCS(=O)(=O)CC3)nc21` [Example 36, [(4S)-7,8-dichloro-6-(2,6-difluorophenyl)-4-methyl-4H-[1,2,4]triazolo[1,5-a][1,4]benzodiazepin-2-yl]-(1,1-dioxo-1,4-thiazinan-4-yl)methanone]: the Ki worked out at 3.5 nM in experiment [1] (setting [6]); 3.46 nM in experiment [1] (setting [7]); 778 nM in experiment [2]; 8.25 nM in experiment [4]; 0.95 nM in experiment [5]. The “γ2/γ1 Selectivity Ratio” value in experiment [2] is given as 224.7. In experiment [2], the LogSel amounted to 2.35. Besides, in experiment [3], the “Efficacy (GABA)%” value stood at 71%. The “Fold increase h-GABA-A α2β2γ1 oocyte @ 30-fold Ki” value in experiment [3] was 1.71.
In the case of `C[C@@H]1N=C(c2c(F)cccc2F)c2c(ccc(C(F)(F)F)c2Cl)-n2nc(C(=O)N3CC(O)C3)nc21` [Example 58, (3-hydroxyazetidin-1-yl)-[(4S)-7-chloro-6-(2,6-difluorophenyl)-4-methyl-8-(trifluoromethyl)-4H-[1,2,4]triazolo[1,5-a][1,4]benzodiazepin-2-yl]methanone], the Ki in experiment [1] (setting [6]) was 7 nM; in experiment [1] (setting [7]), 7 nM; in experiment [2], 1090 nM; in experiment [4], 23.9 nM; in experiment [5], 2.3 nM. Moreover, in experiment [2], the “γ2/γ1 Selectivity Ratio” value is recorded as 156.8. This molecule had a LogSel in experiment [2] of 2.20. In addition, in experiment [3], the “Efficacy (GABA)%” value turned out to be 112%. Besides, in experiment [3], the “Fold increase h-GABA-A α2β2γ1 oocyte @ 30-fold Ki” value came out at 2.12.
As to `COC1CN(C(=O)c2nc3n(n2)-c2ccc(C(F)(F)F)c(Cl)c2C(c2c(F)cccc2F)=N[C@H]3C)C1` [Example 23], the Ki amounted to 11.8 nM in experiment [1] (setting [6]); 11.8 nM in experiment [1] (setting [7]); 1140 nM in experiment [2]; 29 nM in experiment [4]; 1.63 nM in experiment [5]. Also, in experiment [2], the “γ2/γ1 Selectivity Ratio” value was 96.8. Further, the “Efficacy (GABA)%” value in experiment [3] is given as 63%.
Take `Cc1nc2n(n1)-c1ccc(Cl)c(Cl)c1C(c1c(F)cccc1F)=N[C@H]2C` [Example 21, (4S)-7,8-dichloro-6-(2,6-difluorophenyl)-2,4-dimethyl-4H-[1,2,4]triazolo[1,5-a][1,4]benzodiazepine]: the Ki in experiment [1] (setting [6]) is 4.4 nM; in experiment [1] (setting [7]), 4.43 nM; in experiment [2], 244 nM; in experiment [4], 8.3 nM; in experiment [5], 0.69 nM. For the same molecule, in experiment [2], the “γ2/γ1 Selectivity Ratio” value is 55.0. The same molecule returned a LogSel in experiment [2] of 1.74. The “Efficacy (GABA)%” value in experiment [3] was 67%. The “Fold increase h-GABA-A α2β2γ1 oocyte @ 30-fold Ki” value in experiment [3] turned out to be 1.67.
For the molecule `C[C@@H]1N=C(c2c(F)cccc2F)c2c(ccc(C(F)(F)F)c2Cl)-n2nc(C(=O)NCCF)nc21` [Example 106, (4S)-7-chloro-6-(2,6-difluorophenyl)-N-(2-fluoroethyl)-4-methyl-8-(trifluoromethyl)-4H-[1,2,4]triazolo[1,5-a][1,4]benzodiazepine-2-carboxamide], the Ki in experiment [1] (setting [6]) worked out at 22.6 nM; in experiment [1] (setting [7]), 22.6 nM; in experiment [2], 4190 nM; in experiment [4], 104 nM; in experiment [5], 2.94 nM. Further, in experiment [2], the “γ2/γ1 Selectivity Ratio” value is recorded as 185.1. Moreover, the LogSel in experiment [2] worked out at 2.27. Also, in experiment [3], the “Efficacy (GABA)%” value is 90%. Moreover, in experiment [3], the “Fold increase h-GABA-A α2β2γ1 oocyte @ 30-fold Ki” value is on record as 1.90.
With `C[C@@H]1N=C(c2c(F)cccc2F)c2c(ccc(Cl)c2Cl)-n2nc(C(=O)N3CCC3)nc21` [Example 14, azetidin-1-yl-[(4S)-7,8-dichloro-6-(2,6-difluorophenyl)-4-methyl-4H-[1,2,4]triazolo[1,5-a][1,4]benzodiazepin-2-yl]methanone], the Ki in experiment [1] (setting [6]) was 7.1 nM; in experiment [1] (setting [7]), 7.1 nM; in experiment [2] it was 773 nM; in experiment [4] it was 8.5 nM; in experiment [5], 1.11 nM. Also, the “γ2/γ1 Selectivity Ratio” value in experiment [2] is on record as 108.2. Further, the LogSel in experiment [2] turned out to be 2.03. The “Efficacy (GABA)%” value in experiment [3] is given as 57%. Also, the “Fold increase h-GABA-A α2β2γ1 oocyte @ 30-fold Ki” value in experiment [3] is reported as 1.57.
As for `COC1CN(C(=O)c2nc3n(n2)-c2ccc(Cl)c(Cl)c2C(c2c(F)cccc2F)=N[C@H]3C)C1` [Example 16, [(4S)-7,8-dichloro-6-(2,6-difluorophenyl)-4-methyl-4H-[1,2,4]triazolo[1,5-a][1,4]benzodiazepin-2-yl]-(3-methoxyazetidin-1-yl)methanone], the Ki in experiment [1] (setting [6]) came to 5.2 nM; in experiment [1] (setting [7]), 5.2 nM; in experiment [2], 571 nM; in experiment [4], 9.2 nM; in experiment [5] it was 1.2 nM. Moreover, in experiment [2], the “γ2/γ1 Selectivity Ratio” value was determined as 109.6. Besides, the LogSel in experiment [2] is listed as 2.04. Besides, the “Efficacy (GABA)%” value in experiment [3] worked out at 52%. In addition, the “Fold increase h-GABA-A α2β2γ1 oocyte @ 30-fold Ki” value in experiment [3] worked out at 1.52.
Take `Cc1nnc(-c2nc3n(n2)-c2ccc(C(F)(F)F)c(Cl)c2C(c2ncccc2F)=N[C@H]3C)o1` [Example 144, 2-[(4S)-7-chloro-6-(3-fluoro-2-pyridyl)-4-methyl-8-(trifluoromethyl)-4H-[1,2,4]triazolo[1,5-a][1,4]benzodiazepin-2-yl]-5-methyl-1,3,4-oxadiazole]: the Ki is 73.5 nM in experiment [1] (setting [6]); 73.5 nM in experiment [1] (setting [7]); 13500 nM in experiment [2]; 179 nM in experiment [4]; 8.3 nM in experiment [5]. Also, the “γ2/γ1 Selectivity Ratio” value in experiment [2] is recorded as 183.6. The molecule further yielded a LogSel in experiment [2] of 2.26. In addition, in experiment [3], the “Efficacy (GABA)%” value stood at 169%. Also, the “Fold increase h-GABA-A α2β2γ1 oocyte @ 30-fold Ki” value in experiment [3] is listed as 2.69.
Take `CNC(=O)Nc1nc2n(n1)-c1ccc(C(F)(F)F)c(Cl)c1C(c1c(F)cccc1F)=N[C@H]2C` [Example 129, 1-[(4S)-7-chloro-6-(2,6-difluorophenyl)-4-methyl-8-(trifluoromethyl)-4H-[1,2,4]triazolo[1,5-a][1,4]benzodiazepin-2-yl]-3-methyl-urea]: the Ki amounted to 6 nM in experiment [1] (setting [6]); 6 nM in experiment [1] (setting [7]); 3350 nM in experiment [2]; 49.9 nM in experiment [4]; 1.58 nM in experiment [5]. Also, the “γ2/γ1 Selectivity Ratio” value in experiment [2] was 558.0. For the same molecule, the LogSel in experiment [2] came out at 2.75. Also, the “Efficacy (GABA)%” value in experiment [3] is reported as 36%. Besides, the “Fold increase h-GABA-A α2β2γ1 oocyte @ 30-fold Ki” value in experiment [3] was determined as 1.36.
